Data on 1 substance can be found in US5080884A, “Hydrocarbylphenyl diaminodithiol radionuclide complexes and their use in imaging” (Medi-Physics, Inc., priority 1991, dated 1992).

Data set [1] is described as follows: Electrophoresis of Tc-99m complex (NaH2PO4, pH 4.5). The class given is physicochemical. As to conditions: 0.05 M NaH2PO4, pH 4.5, 300 volts, 30 min.
Data set [2] can be described thus: Biological distribution of Tc-99m complexes in rats (pentobarbital anesthesia). The class given is in vivo, Female Sprague-Dawley rats. As to conditions: average of 2 rats; for Blood, % Injected Dose/Gram Tissue / Brain, % Injected Dose/Gram Tissue / Heart, % Injected Dose/Gram Tissue: pentobarbital anesthesia; for Brain:Blood / Heart:Blood: ratio. Here is the method:
Distribution of the Tc-99m labeled compounds was evaluated in rats. Female Sprague-Dawley rats weighing 140 to 220 g (average 170 g) were anesthetized with sodium pentobarbital and were injected in a tail vein with from 0.05 to 10 mCi of the Tc-99m labeled complex in a volume of 0.2 to 0.5 ml. At least two rats were injected for each time point.
The animals were sacrificed at 5 and 30 minutes after injection and selected organs were removed; the tails were discharged to avoid interference from the injection site. The radioactivity in each organ was measured at a standard geometry with a […] sodium iodide scintillation detector adjusted for the 140 KeV emission of Tc-99m. The organs were also weighed to one hundredth of a gram and the activity was calculated as a percent of administered dose per gram.

[3] abbreviates: 5 min after i.v. (tail vein) injection.
Where [4] appears, read: 30 min after i.v. (tail vein) injection.

On to “Tc-99m complex of 2-(2-Butylthio-2-methylpropylamino)-1-(2-mercapto-2-methylpropylamino)-3-methylbenzene [Example 53]”, for which the Electrophoresis entry in data set [1] was “neutral”. In data set [2] (setting [3]), the “Blood, % Injected Dose/Gram Tissue” value was 0.76 % Injected Dose/Gram Tissue; the “Brain, % Injected Dose/Gram Tissue” value is recorded as 0.29 % Injected Dose/Gram Tissue; the “Heart, % Injected Dose/Gram Tissue” value is given as 1.58 % Injected Dose/Gram Tissue. In data set [2] (setting [4]), the “Blood, % Injected Dose/Gram Tissue” value is given as 0.41 % Injected Dose/Gram Tissue; the “Brain, % Injected Dose/Gram Tissue” value is 0.29 % Injected Dose/Gram Tissue; the “Heart, % Injected Dose/Gram Tissue” value is given as 0.85 % Injected Dose/Gram Tissue. Also, in data set [2] (5 min after i.v. injection), the “Brain:Blood” value is reported as 0.38 and the “Heart:Blood” value stood at 2.06. Moreover, in data set [2] (30 min after i.v. injection), the “Brain:Blood” value was determined as 0.71 and the “Heart:Blood” value is 2.09.
